The test system of series [1] is β-adrenergic receptors. The conditions noted are these: as disclosed in British patent specifications 1,541,932 and 1,541,933; cited from earlier work.
Another series concerns a-adrenergic receptors. As to the kind of experiment: α-adrenergic blocking potency, animal tests. The class given is in vivo. The conditions noted are these: relative to labetalol (assigned value 1.0). An excerpt: (§1) The a- and β-blocking activities discussed earlier in this specification can be determined by known methods, e.g. by those of Farmer et.al., Brit. J. Pharm., 45, 660 (1972); Robson, J. Pharm. Exp. Therap., 175, 157 (1970), and Levy, Arch. Int. Pharmacodyn. Ther., 204,. 143 (197-3).

The test system of series [2] is β-adrenergic receptors. The experiment in a line: β-adrenergic blocking potency, animal tests. The class given is in vivo. To be noted: for β-blocking potency: relative to labetalol (assigned value 1.0), animal tests.
Text: as §1

Series [3] is described as follows: direct peripheral vasodilation activity. To be noted: compared with labetalol. The class given is in vivo.
Series [4] can be described thus: antihypertensive activity, laboratory tests, oral dosing. The conditions noted are these: result in words. The class given is in vivo.
Series [5] in a line: toxicity at therapeutic doses. The class given is in vivo.

For `CC(CCc1ccccc1)NCC(O)c1ccc(O)c(C(N)=O)c1` (racemic) [diastereoisomer A], in the series on β-adrenergic receptors [1], the β-adrenergic blocking activity result is “strongly reduced”.

As for `C[C@H](CCc1ccccc1)NC[C@H](O)c1ccc(O)c(C(N)=O)c1` (racemic) [diastereoisomer B, reference compound], the a-blocking potency result with a-adrenergic receptors is “half”. Besides, the β-blocking potency result in the series with β-adrenergic receptors [2] was “not significantly different from that of labetalol”.

In the case of `C[C@H](CCc1ccccc1)NC[C@H](O)c1ccc(O)c(C(N)=O)c1` (single isomer, unassigned; isomer 5) [(R,R) optical isomer], the “direct peripheral vasodilation activity” value in series [3] is reported as “greater direct peripheral vasodilation activity than labetalol”. Also, the antihypertensive activity entry in series [4] is on record as “potent antihypertensive activity”. Besides, the a-blocking potency result in the series on a-adrenergic receptors is given as “about one third”. Moreover, the toxicity result in series [5] is “substantially non-toxic”. For the same compound, the “ratio of the β-adrenergic blocking potency to the a-adrenergic blocking potency” value in the series on β-adrenergic receptors [2] (compared with labetalol) was “greatly and unexpectedly increased”. Also, the β-blocking potency result in the series on β-adrenergic receptors [2] is “about twelve times”.

(Values after patent EP0009702A1, “A phenylalkylaminoethylsalicylamide, its preparation and pharmaceutical compositions containing it” (SCHERING CORPORATION, priority 1978, dated 1980).)
